Laboratory results taken from patent US20130012709A1, “NOVEL INHIBITORS OF STEAROYL-CoA-DESATURASE-1 AND THEIR USES” (CENTRE NATIONAL DE LA RECHERCHE SCIENTIFIQUE, priority 2009, published 2013).

Key:
C4-2 cells = assay: Phospho-kinase array and immunoblot; assay type: cell-based, human
Procedure: (§1) Protein extracts and sodium dodecyl sulfate (SDS)-polyacrylamide gel electrophoresis (PAGE), electrotransfer and immunoblotting were performed as previously described (34). The primary antibodies rabbit anti-AMPK, rabbit anti-phospho AMPK (Thr172), rabbit anti-Akt and rabbit anti-phospho Akt were purchased from Cell signalling Technology (Ozyme, Saint Quentin Yvelines, France). The primary antibody mouse anti-tubulineα was purchased from Lab Vision (Thermo Fisher Scientific, Microm France, Francheville, France). The primary antibodies rabbit anti-p44/p42 MAPK, rabbit anti-phospho p44/p42 MAPK (Thr202/Tyr204), mouse anti-GSK3α/β, and rabbit anti-phospho GSK3α/β were kindly provided by Dr Gilles Freiss. LNCaP and C4-2 cells treated with the tested compound at 25 μM were analyzed for the relative phosphorylation of 46 kinase phosphorylation sites using human phospho-kinase array kit (Proteome Profiler™) according to the manufacturers' recommendations (R&D systems Europe, Lille, France).

LNCaP cells = assay: Phospho-kinase array and immunoblot; assay type: cell-based, human
Procedure: as §1

SMILES: COc1ccc(Br)c(C(=O)N2CCN(c3ccc(C(=O)NCCCc4ccccc4)cn3)CC2)c1 [BZ36]
- phosphorylation of GSK3a/13 (C4-2 cells; C4-2): abrogated
- phosphorylation of AMPKcc (C4-2 cells; C4-2, 25 μM): increased
- Akt phosphorylation (5473/T308) (C4-2 cells; C4-2, 25 μM, vs non-treated cells): decrease
- phosphorylation of ERK1/2 (C4-2 cells; C4-2, immunoblot): decreased phosphorylation
- phosphorylation of MEK1/2 (S218/5222, S222/S226) (C4-2 cells; C4-2, vs control cells): Significant decreases
- phosphorylation of GSK3a/13 (LNCaP cells): abrogated
- phosphorylation of AMPKcc (LNCaP cells; 25 μM): increased
- Akt phosphorylation (5473/T308) (LNCaP cells; 25 μM, vs non-treated cells): decrease
- phosphorylation of ERK1/2 (LNCaP cells; immunoblot): decreased phosphorylation
